# US4351948A, “Imidazole hydrazone derivatives” (priority 1980, dated 1982)
# Counter-ions that a name gives are not always drawn. Like-named read-outs stand apart in the source and are kept apart here.
# Legend:
# [1] = system: platelet thromboxane generation; assay: Inhibition of platelet thromboxane generation (TxB2, collagen-stimulated human platelet rich plasma); type: cell-based; conditions: 10 min, read-out: Activity IC50 (50% inhibition of TxB2 generation)
# Description: The compounds used according to the invention as anti-thrombotics were tested by the following method for their ability to inhibit platelet thromboxane generation.
# Human venous blood was collected from healthy male donors, who had denied any medication in the previous 14 days. Nine volumes of blood were mixed with one volume of 3.24% trisodium citrate. The citrated blood was centrifuged at 160 g for 10 mins. at 22° C. to obtain platelet rich plasma (PRP). The platelets were then counted on a Coulter counter, and the platelet count was adjusted to 200,000 per μl with plasma.
# The PRP was then dispensed as aliquots into micro-Eppendorf tubes, maintained at 37° C. in a dry bath. The compounds dissolved either in saline, ethanol, or DMSO were added in duplicate to the PRP aliquots to produce final concentrations of 0.3, 3 and 30 μg/ml. When ethanol and DMSO were used as the vehicle, triplicate controls containing the same percentage of vehicle as the test compounds were made. The final concentration or organic solvent was never more than 0.1%, which in previous experiments had no effect on TxB2 generation.
# Following a 10 min. incubation with test compounds or vehicle, collagen was added to produce a final concentration of 8 μg/ml. The tubes were then whirly-mixed for 15 seconds and replaced in the dry bath for a further 10 minutes, controls received saline instead of collagen. The reaction was then stopped by rapid centrifugation, 15,000 g for 3 mins. The plasma was removed and frozen at -29° C. until assayed.
# Briefly, 100 μl aliquots, in tricine buffered saline+0.8% gelatin (pH 8.0) of the following were incubated together for 1 hour at 37° C.: thromboxane Tx B2 (plasma extract, spiked plasma extract or standards 20 to 20,000 pg/ml), ^3 H--TxB2 (approximately 15,000 dpm) and anti-TxB2 antiserum (0.5 μg/100 μl). The free and protein bound ^3 H--TxB2 were separated by ammonium sulphate precipitation followed by centrifugation. 300 μl of the supernatant was added to an aqueous scintillation fluid, and the radioactivity present was counted in a liquid scintillation counter. The binding of ^3 H--TxB2 in the absence of added TxB2 was approximately 55%. The least amount of TxB2 to be detected accurately in the plasma was 0.08 ng/ml. Cross reactivity with other prostaglandins is less than 0.005% except PGD2 which is 1%.
# Thus plasma samples were assayed to give a rough approximation of TxB2 content. The plasma was then appropriately diluted and assayed in duplicate to give accurate values.
# The amount of TxB2 generated by the collagen was calculated by subtracting mean values obtained for the saline stimulated platelets from the mean values obtained from the collagen stimulated platelets. Then the amount of TxB2 generated in the presence of each concentration of compound was expressed as a % control and dose response curves were then constructed to determine the concentration of compound which produced a 50% inhibition.
# in vivo = conditions: male mice, 7 day; for LD12.5: p.o.
# C. sporogenes ATCC 19404 = assay: Antianaerobic activity, MIC by standard broth dilution method (Table II); type: cell-based; conditions: Clostridium sporogenes, ATCC19404, 24 h, read-out: Minimal Inhibitory Concentration (MIC)
# Description: (§1) The activity of the compounds identified in the Table II below was tested for antianaerobic activity against one strain of Bacteroides fragilis, one strain of Bacteroides uniformis, one strain of Clostridium sporogenes and one strain of Trichomonas vaginalis as the test organism. The methods used involved determining the minimum inhibitory concentration by the standard broth dilution method. The values for metronidazole (2-methyl-5-nitro-1H-imidazole-1-ethanol) are given above for reference purposes. For convenience the compounds are referred to by an internal reference number (an HC number) and this is correlated with the number of the Example wherein its production is described.
# T. vaginalis ATCC 30001 = assay: as above; type: cell-based; conditions: Trichomonas vaginalis, ATCC30001, 24 h, read-out: Minimal Inhibitory Concentration (MIC)
# Description: as §1, with “The values for metronidazole (2-methyl-5-nitro-1H-imidazole-1-ethanol) are given above for reference purposes.” left out
# B. uniformis ATCC 8492 = assay: as above; type: cell-based; conditions: Bacteroides uniformis, ATCC8492, 24 h, read-out: Minimal Inhibitory Concentration (MIC)
# Description: as §1, with “The values for metronidazole (2-methyl-5-nitro-1H-imidazole-1-ethanol) are given above for reference purposes.” left out
# B. fragilis ATCC 23745 = assay: as above; type: cell-based; conditions: Bacteroides fragilis, ATCC23745, 24 h, read-out: Minimal Inhibitory Concentration (MIC)
# Description: as §1, with “The values for metronidazole (2-methyl-5-nitro-1H-imidazole-1-ethanol) are given above for reference purposes.” left out
# [2] = collagen 8 μg/ml, human PRP, 10 min. incubation, 37° C.
smiles,measurement,setting,value
"O=[N+]([O-])c1ccc(NN=C(Cn2ccnc2)c2ccccc2Cl)c([N+](=O)[O-])c1 [HC 336, 1-(2-chlorophenyl)-2-(1H-imidazol-1-yl) ethanone, 2,4-dinitrophenylhydrazone, hydrochloride]",IC50,[1]; Homo sapiens,0.9 µM
"Clc1ccc(C(Cn2ccnc2)=NNc2ccccc2)cc1 [HC 290, 1-(4-Chlorophenyl)-2-(1H-imidazol-1-yl)ethanone, phenylhydrazone, hydrochloride]",IC50,[1]; [2],4.9 µM
"O=[N+]([O-])c1cccc(C(Cn2ccnc2)=NNc2c(Cl)cccc2Cl)c1 [HC 402, 1-(3-nitrophenyl)-2-(1H-imidazol-1-yl)ethanone, 2,6-dichlorophenylhydrazone, hydrochloride]",IC50,[1]; Homo sapiens,0.7 µM
"Clc1ccc(C(Cn2ccnc2)=NNc2cc(Cl)cc(Cl)c2)cc1 [HC 346, 1-(4-chlorophenyl)-2-(1H-imidazol-1-yl) ethanone, 3,5-dichlorophenylhydrazone]",IC50,[1]; [2],2.7 µM
"N#Cc1ccc(C(Cn2ccnc2)=NNc2c(Cl)cccc2Cl)cc1 [HC 416, 1-(4-cyanophenyl)-2-(1H-imidazol-1-yl)ethanone, 2,6-dichlorophenylhydrazone, hydrochloride]",IC50,[1]; [2],13.8 µM
"FC(F)(F)c1ccccc1C(Cn1ccnc1)=NNc1c(Cl)cccc1Cl [HC 418, 1-(2-trifluoromethylphenyl)-2-(1H-imidazol-1-yl)ethanone, 2,6-dichlorophenylhydrazone, hydrochloride]",IC50,[1]; [2],20.9 µM
C[C@@H]1[C@H](O)[C@@H](C)/C=C/C=C/C=C/C=C/C=C/C=C/C=C/[C@H](O[C@@H]2O[C@H](C)[C@@H](O)[C@H](N)[C@@H]2O)C[C@@H]2O[C@](O)(C[C@@H](O)C[C@@H](O)[C@H](O)CC[C@@H](O)C[C@@H](O)CC(=O)O[C@H]1C)C[C@H](O)[C@H]2C(=O)O [Amphotericin B],LD12.5,in vivo,280 mg/kg
"Clc1ccc(C(Cn2ccnc2)=NNc2c(Cl)cccc2Cl)c(Cl)c1 [HC 377, 1-(2,4-dichlorophenyl)-2-(1H-imidazol-1-yl)ethanone, 2,6-dichlorophenylhydrazone, hydrochloride]",IC50,[1]; [2],2.7 µM
"Clc1ccc(/C(Cn2ccnc2)=N\Nc2ccccc2Cl)cc1 [HC 500, (E)-1-(4-chlorophenyl)-2-(1H-imidazol-1-yl)ethanone, 2-chlorophenylhydrazone, hydrochloride]",IC50,[1]; [2],> 80 µM
"Clc1ccccc1C(Cn1ccnc1)=NNc1c(Cl)cccc1Cl [HC 365, 1-(2-chlorophenyl)-2-(1H-imidazol-1-yl)ethanone, 2,6-dichlorophenylhydrazone, hydrochloride]",IC50,[1]; [2],3.6 µM
"Clc1cccc(Cl)c1NN=C(Cn1ccnc1)c1ccccc1 [HC 368, 1-phenyl-2-(1H-imidazol-1-yl)ethanone, 2,6-dichlorophenylhydrazone, hydrochloride]",IC50,[1]; [2],0.8 µM
Nc1nc(=O)[nH]cc1F [5-Fluorocytosine],LD50 at 168 h,"in vivo; mouse, in vivo, iv, read-out: LD50",500 mg/kg
same,LD12.5,in vivo,500 mg/kg
"COc1ccc(C(Cn2ccnc2)=NNc2cc(Cl)ccc2Cl)cc1.Cl [HC-464, 1-(4-methoxyphenyl)-2-(1H-imidazol-1-yl)ethanone, 2,5-dichlorophenylhydrazone, hydrochloride]",MIC,C. sporogenes ATCC 19404; Test 1,2.5 µg/mL
same,MIC,C. sporogenes ATCC 19404; Test 2,5 µg/mL
same,MIC,C. sporogenes ATCC 19404; Test 3,2.5 µg/mL
same,MIC,T. vaginalis ATCC 30001; Test 1,10 µg/mL
same,MIC,T. vaginalis ATCC 30001; Test 2,50 µg/mL
same,MIC,T. vaginalis ATCC 30001; Test 3,50 µg/mL
same,MIC,B. uniformis ATCC 8492; Test 1,2.5 µg/mL
same,MIC,B. uniformis ATCC 8492; Test 2,2.5 µg/mL
same,MIC,B. uniformis ATCC 8492; Test 3,2.5 µg/mL
same,MIC,B. fragilis ATCC 23745; Test 1,2.5 µg/mL
same,MIC,B. fragilis ATCC 23745; Test 2,5 µg/mL
same,MIC,B. fragilis ATCC 23745; Test 3,5 µg/mL
"Clc1ccc(NN=C(Cn2ccnc2)c2ccc(Cl)cc2Cl)c(Cl)c1 [HC-380, 1-(2,4-dichlorophenyl)-2-(1H-imidazol-1-yl) ethanone, 2,4-dichlorophenylhydrazone, hydrochloride]",MIC,C. sporogenes ATCC 19404; Test 1,10 µg/mL
same,MIC,C. sporogenes ATCC 19404; Test 2,2.5 µg/mL
same,MIC,C. sporogenes ATCC 19404; Test 3,2.5 µg/mL
same,MIC,T. vaginalis ATCC 30001; Test 1,50 µg/mL
same,MIC,T. vaginalis ATCC 30001; Test 2,25 µg/mL
same,MIC,T. vaginalis ATCC 30001; Test 3,25 µg/mL
same,MIC,B. uniformis ATCC 8492; Test 1,10 µg/mL
same,MIC,B. uniformis ATCC 8492; Test 2,2.5 µg/mL
same,MIC,B. uniformis ATCC 8492; Test 3,2.5 µg/mL
same,MIC,B. fragilis ATCC 23745; Test 1,10 µg/mL
same,MIC,B. fragilis ATCC 23745; Test 2,2.5 µg/mL
same,MIC,B. fragilis ATCC 23745; Test 3,2.5 µg/mL
"Fc1ccccc1C(Cn1ccnc1)=NNc1ccc(Cl)cc1Cl [HC 426, 1-(2-fluorophenyl)-2-(1H-imidazol-1-yl)ethanone, 2,4-dichlorophenylhydrazone, hydrochloride]",IC50,[1]; [2],5.5 µM
"Cl.Clc1ccc(NN=C(Cn2ccnc2)c2ccccc2)cc1Cl [HC-442, 1-phenyl-2-(1H-imidazol-1-yl)ethanone, 3,4-dichlorophenylhydrazone, hydrochloride]",MIC,C. sporogenes ATCC 19404; Test 1,5 µg/mL
same,MIC,C. sporogenes ATCC 19404; Test 2,2.5 µg/mL
same,MIC,C. sporogenes ATCC 19404; Test 3,2.5 µg/mL
same,MIC,T. vaginalis ATCC 30001; Test 1,50 µg/mL
same,MIC,T. vaginalis ATCC 30001; Test 2,75 µg/mL
same,MIC,T. vaginalis ATCC 30001; Test 3,100 µg/mL
same,MIC,B. uniformis ATCC 8492; Test 1,2.5 µg/mL
same,MIC,B. uniformis ATCC 8492; Test 2,5 µg/mL
same,MIC,B. uniformis ATCC 8492; Test 3,5 µg/mL
same,MIC,B. fragilis ATCC 23745; Test 1,2.5 µg/mL
same,MIC,B. fragilis ATCC 23745; Test 2,5 µg/mL
same,MIC,B. fragilis ATCC 23745; Test 3,5 µg/mL
"Cl.Clc1cc(Cl)c(NN=C(Cn2ccnc2)c2ccccc2Cl)c(Cl)c1 [HC-523, 1-(2-chlorophenyl)-2-(1H-imidazol-1-yl)ethanone, 2,4,6-trichlorophenylhydrazone, hydrochloride]",MIC,C. sporogenes ATCC 19404; Test 1,2.5 µg/mL
same,MIC,C. sporogenes ATCC 19404; Test 2,2.5 µg/mL
same,MIC,C. sporogenes ATCC 19404; Test 3,5 µg/mL
same,MIC,T. vaginalis ATCC 30001; Test 1,50 µg/mL
same,MIC,T. vaginalis ATCC 30001; Test 2,50 µg/mL
same,MIC,T. vaginalis ATCC 30001; Test 3,50 µg/mL
same,MIC,B. uniformis ATCC 8492; Test 1,5 µg/mL
same,MIC,B. uniformis ATCC 8492; Test 2,2.5 µg/mL
same,MIC,B. uniformis ATCC 8492; Test 3,5 µg/mL
same,MIC,B. fragilis ATCC 23745; Test 1,7.5 µg/mL
same,MIC,B. fragilis ATCC 23745; Test 2,5 µg/mL
same,MIC,B. fragilis ATCC 23745; Test 3,7.5 µg/mL
"Cl.Clc1cccc(Cl)c1NN=C(Cn1ccnc1)c1ccc(Br)s1 [HC-466, 1-(5-bromothien-2-yl)-2-(1H-imidazol-1-yl)ethanone, 2,6-dichlorophenylhydrazone, hydrochloride]",MIC,C. sporogenes ATCC 19404; Test 1,5 µg/mL
same,MIC,C. sporogenes ATCC 19404; Test 2,5 µg/mL
same,MIC,C. sporogenes ATCC 19404; Test 3,5 µg/mL
same,MIC,T. vaginalis ATCC 30001; Test 1,50 µg/mL
same,MIC,T. vaginalis ATCC 30001; Test 2,50 µg/mL
same,MIC,T. vaginalis ATCC 30001; Test 3,50 µg/mL
same,MIC,B. uniformis ATCC 8492; Test 1,1 µg/mL
same,MIC,B. uniformis ATCC 8492; Test 2,5 µg/mL
same,MIC,B. uniformis ATCC 8492; Test 3,5 µg/mL
same,MIC,B. fragilis ATCC 23745; Test 1,1 µg/mL
same,MIC,B. fragilis ATCC 23745; Test 2,5 µg/mL
same,MIC,B. fragilis ATCC 23745; Test 3,5 µg/mL
